Reference: patent US8163724B2, “Glucocorticosteroids, processes for their preparation, pharmaceutical compositions containing them and their use in therapy” (AstraZeneca AB, priority 2007, dated 2012)
pIC50: −log10 of the molar value.

These molecules were tested against T1, recombinant human GR (Homo sapiens, UniProt P04150) (assay: Human Glucocorticoid Receptor (GR) Assay (fluorescence polarization, Panvera/Invitrogen kit)). Settings: fluorescence polarization; GS Red tracer; 2 hours at room temperature; 100% control 10 μM Dexamethasone; read-out: Inhibition of GR binding, IC50.
T1 construct: purchased Panvera/Invitrogen P2812 (kit P2893)
T1 sequence (P04150 1-777): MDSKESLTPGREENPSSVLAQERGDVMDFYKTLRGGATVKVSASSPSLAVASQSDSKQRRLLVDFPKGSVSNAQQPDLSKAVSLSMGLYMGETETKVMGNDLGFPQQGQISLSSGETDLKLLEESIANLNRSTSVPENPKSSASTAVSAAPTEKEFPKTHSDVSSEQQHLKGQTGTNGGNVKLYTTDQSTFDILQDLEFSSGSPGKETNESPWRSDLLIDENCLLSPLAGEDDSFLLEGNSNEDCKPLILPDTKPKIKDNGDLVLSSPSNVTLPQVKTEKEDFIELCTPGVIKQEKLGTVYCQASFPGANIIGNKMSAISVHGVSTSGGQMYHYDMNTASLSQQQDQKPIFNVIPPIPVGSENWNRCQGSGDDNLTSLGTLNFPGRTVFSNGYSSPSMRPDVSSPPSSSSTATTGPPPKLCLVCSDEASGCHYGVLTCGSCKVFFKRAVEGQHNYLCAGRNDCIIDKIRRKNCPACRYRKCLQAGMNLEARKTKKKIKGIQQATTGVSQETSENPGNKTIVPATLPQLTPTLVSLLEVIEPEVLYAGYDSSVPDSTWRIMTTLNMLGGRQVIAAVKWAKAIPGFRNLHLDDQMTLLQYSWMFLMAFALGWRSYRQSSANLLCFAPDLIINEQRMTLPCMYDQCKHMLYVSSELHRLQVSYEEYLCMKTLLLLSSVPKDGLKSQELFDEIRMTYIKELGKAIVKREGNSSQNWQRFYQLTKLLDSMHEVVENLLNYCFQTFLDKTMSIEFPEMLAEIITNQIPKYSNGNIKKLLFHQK
Assay type: binding
Experimental: Human Glucocorticoid Receptor (GR) Assay
The assay is based on a commercial kit from Panvera/Invitrogen (Part number P2893). The assay technology is fluorescence polarization. […] The GR and Stabilizing Peptide reagents are stored at −70° C. while the GS Red is stored at −20° C. Also included in the kit are 1M DTT (Panvera, Part number P2325, stored at −20° C.) and GR Screening buffer 10× (Panvera, Part number P2814, stored at −70° C. initially but once thawed stored at room temperature). Avoid repeated freeze/thaws for all reagents. The GR Screening buffer 10× comprises 100 mM potassium phosphate, 200 mM sodium molybdate, 1 mM EDTA and 20% DMSO.
0% control was 100% DMSO and 100% control was 10 μM Dexamethasone. Background solution (8 μL; assay buffer 10×, Stabilizing Peptide, DTT and ice cold MQ water) was added to the background wells. GS Red solution (7 μL; assay buffer 10×, Stabilizing Peptide, DTT, GS Red and ice cold water) was added to all wells except background wells. GR solution (7 μL; assay buffer 10×, Stabilizing Peptide, DTT, GR and ice cold water) was added to all wells. The plate was sealed and incubated in a dark at room temperature for 2 hours.
`C[C@]12Cc3cnn(-c4ccc(F)cc4)c3C=C1CC[C@@H]1[C@@H]2[C@@H](O)C[C@@]2(C)[C@H]1CC[C@]2(OC(=O)[C@H]1CCCO1)C(=O)SCC#N` (single isomer, unassigned) [Example 128] was tested, and the pIC50 was 8.42. `C[C@]12Cc3cnn(-c4ccc(F)cc4)c3C=C1CC[C@@H]1[C@@H]2[C@@H](O)C[C@@]2(C)[C@H]1CC[C@]2(OC(=O)C1CCCCO1)C(=O)SCC#N` (single isomer, unassigned) [Example 136] was tested, and the pIC50 was 8.35. Molecule `C[C@]12Cc3cnn(-c4ccc(F)cc4)c3C=C1CC[C@@H]1[C@@H]2[C@@H](O)C[C@@]2(C)[C@H]1CC[C@]2(OC(=O)C1CCCOC1)C(=O)SCC#N` (single isomer, unassigned) [Example 138] has a pIC50 of 8.42. Work on `Cc1ncsc1C(=O)O[C@]1(C(=O)SCF)CC[C@H]2[C@@H]3CCC4=Cc5c(cnn5-c5ccc(F)cc5)C[C@]4(C)[C@H]3[C@@H](O)C[C@@]21C` [Example 1, (1R,3aS,3bS,10aR,10bS,11S,12aS)-1-{[(Fluoromethyl)thio]carbonyl}-7-(4-fluorophenyl)-11-hydroxy-10a,12a-dimethyl-1,2,3,3a,3b,4,5,7,10,10a,10b,11,12,12a-tetradecahydrocyclopenta[5,6]naphtho[1,2-f]indazol-1-yl 4-methyl-1,3-thiazole-5-carboxylate] yielded a pIC50 of 8.12. In the case of `Cc1ncsc1C(=O)O[C@]1(C(=O)SCC#N)CC[C@H]2[C@@H]3CCC4=Cc5c(cnn5-c5ccc(F)cc5)C[C@]4(C)[C@H]3[C@@H](O)C[C@@]21C` [Example 2, (1R,3aS,3bS,10aR,10bS,11S,12aS)-1-{[(Cyanomethyl)thio]carbonyl}-7-(4-fluorophenyl)-11-hydroxy-10a,12a-dimethyl-1,2,3,3a,3b,4,5,7,10,10a,10b,11,12,12a-tetradecahydrocyclopenta[5,6]naphtho[1,2-f]indazol-1-yl 4-methyl-1,3-thiazole-5-carboxylate], the pIC50 was 8.13. In the case of `CCSC(=O)[C@@]1(OC(=O)c2scnc2C)CC[C@H]2[C@@H]3CCC4=Cc5c(cnn5-c5ccc(F)cc5)C[C@]4(C)[C@H]3[C@@H](O)C[C@@]21C` [Example 3, (1R,3aS,3bS,10aR,10bS,11S,12aS)-1-[(Ethylthio)carbonyl]-7-(4-fluorophenyl)-11-hydroxy-10a,12a-dimethyl-1,2,3,3a,3b,4,5,7,10,10a,10b,11,12,12a-tetradecahydrocyclopenta[5,6]naphtho[1,2-f]indazol-1-yl 4-methyl-1,3-thiazole-5-carboxylate], the pIC50 was 7.82. With `Cc1nnsc1C(=O)O[C@]1(C(=O)SCF)CC[C@H]2[C@@H]3CCC4=Cc5c(cnn5-c5ccc(F)cc5)C[C@]4(C)[C@H]3[C@@H](O)C[C@@]21C` [Example 4, (1R,3aS,3bS,10aR,10bS,11S,12aS)-1-{[(Fluoromethyl)thio]carbonyl}-7-(4-fluorophenyl)-11-hydroxy-10a,12a-dimethyl-1,2,3,3a,3b,4,5,7,10,10a,10b,11,12,12a-tetradecahydrocyclopenta[5,6]naphtho[1,2-f]indazol-1-yl 4-methyl-1,2,3-thiadiazole-5-carboxylate] the pIC50 was 8.23. `CCSC(=O)[C@@]1(OC(=O)c2snnc2C)CC[C@H]2[C@@H]3CCC4=Cc5c(cnn5-c5ccc(F)cc5)C[C@]4(C)[C@H]3[C@@H](O)C[C@@]21C` [Example 5, (1R,3aS,3bS,10aR,10bS,11S,12aS)-1-[(Ethylthio)carbonyl]-7-(4-fluorophenyl)-11-hydroxy-10a,12a-dimethyl-1,2,3,3a,3b,4,5,7,10,10a,10b,11,12,12a-tetradecahydrocyclopenta[5,6]naphtho[1,2-f]indazol-1-yl 4-methyl-1,2,3-thiadiazole-5-carboxylate] was tested, and the pIC50 was 7.82. With `Cc1nnsc1C(=O)O[C@]1(C(=O)SCC#N)CC[C@H]2[C@@H]3CCC4=Cc5c(cnn5-c5ccc(F)cc5)C[C@]4(C)[C@H]3[C@@H](O)C[C@@]21C` [Example 6, (1R,3aS,3bS,10aR,10bS,11S,12aS)-1-{[(Cyanomethyl)thio]carbonyl}-7-(4-fluorophenyl)-11-hydroxy-10a,12a-dimethyl-1,2,3,3a,3b,4,5,7,10,10a,10b,11,12,12a-tetradecahydrocyclopenta[5,6]naphtho[1,2-f]indazol-1-yl 4-methyl-1,2,3-thiadiazole-5-carboxylate] the pIC50 was 8.23. `C[C@]12Cc3cnn(-c4ccc(F)cc4)c3C=C1CC[C@@H]1[C@@H]2[C@@H](O)C[C@@]2(C)[C@H]1CC[C@]2(OC(=O)c1ccco1)C(=O)SCC#N` [Example 7, (1R,3aS,3bS,10aR,10bS,11S,12aS)-1-{[(Cyanomethyl)thio]carbonyl}-7-(4-fluorophenyl)-11-hydroxy-10a,12a-dimethyl-1,2,3,3a,3b,4,5,7,10,10a,10b,11,12,12a-tetradecahydrocyclopenta[5,6]naphtho[1,2-f]indazol-1-yl 2-furoate] was tested, and the pIC50 was 8.25. `C[C@]12Cc3cnn(-c4ccc(F)cc4)c3C=C1CC[C@@H]1[C@@H]2[C@@H](O)C[C@@]2(C)[C@H]1CC[C@]2(OC(=O)c1ccco1)C(=O)SCF` [Example 8, (1R,3aS,3bS,10aR,10bS,11S,12aS)-1-{[(Fluoromethyl)thio]carbonyl}-7-(4-fluorophenyl)-11-hydroxy-10a,12a-dimethyl-1,2,3,3a,3b,4,5,7,10,10a,10b,11,12,12a-tetradecahydrocyclopenta[5,6]naphtho[1,2-f]indazol-1-yl 2-furoate] was tested, and the pIC50 was 8.33. In the case of `Cc1ncsc1C(=O)O[C@]1(C(=O)OCC#N)CC[C@H]2[C@@H]3CCC4=Cc5c(cnn5-c5ccc(F)cc5)C[C@]4(C)[C@H]3[C@@H](O)C[C@@]21C` [Example 9, Cyanomethyl(1R,3aS,3bS,10aR,10bS,11S,12aS)-7-(4-fluorophenyl)-11-hydroxy-10a,12a-dimethyl-1-{[(4-methyl-1,3-thiazol-5-yl)carbonyl]oxy}-1,2,3,3a,3b,4,5,7,10,10a,10b,11,12,12a-tetradecahydrocyclopenta[5,6]naphtho[1,2-f]indazole-1-carboxylate], the pIC50 was 8.03. For `CCC(=O)O[C@]1(C(=O)SCC#N)CC[C@H]2[C@@H]3CCC4=Cc5c(cnn5-c5ccc(F)cc5)C[C@]4(C)[C@H]3[C@@H](O)C[C@@]21C` [Example 10, (1R,3aS,3bS,10aR,10bS,11S,12aS)-1-{[(Cyanomethyl)thio]carbonyl}-7-(4-fluorophenyl)-11-hydroxy-10a,12a-dimethyl-1,2,3,3a,3b,4,5,7,10,10a,10b,11,12,12a-tetradecahydrocyclopenta[5,6]naphtho[1,2-f]indazol-1-yl propionate], the pIC50 was 8.49. For `CCC(=O)O[C@]1(C(=O)SCC(=O)OC)CC[C@H]2[C@@H]3CCC4=Cc5c(cnn5-c5ccc(F)cc5)C[C@]4(C)[C@H]3[C@@H](O)C[C@@]21C` [Example 11, (1R,3aS,3bS,10aR,10bS,11S,12aS)-7-(4-Fluorophenyl)-11-hydroxy-1-{[(2-methoxy-2-oxoethyl)thio]carbonyl}-10a,12a-dimethyl-1,2,3,3a,3b,4,5,7,10,10a,10b,11,12,12a-tetradecahydrocyclopenta[5,6]naphtho[1,2-f]indazol-1-yl propanoate], the pIC50 was 8.42. `CCC(=O)O[C@]1(C(=O)SC(C)C#N)CC[C@H]2[C@@H]3CCC4=Cc5c(cnn5-c5ccc(F)cc5)C[C@]4(C)[C@H]3[C@@H](O)C[C@@]21C` (stereo partly drawn) [Example 12, (1R,3aS,3bS,10aR,10bS,11S,12aS)-1-{[(1-Cyanoethyl)thio]carbonyl}-7-(4-fluoro-phenyl)-11-hydroxy-10a,12a-dimethyl-1,2,3,3a,3b,4,5,7,10,10a,10b,11,12,12a-tetradecahydrocyclopenta[5,6]naphtho[1,2-f]indazol-1-yl propanoate] showed a pIC50 of 8.24.
